In patent publication US20150328250A1, “Animal Food Composition and Method” (HILL'S PET NUTRITION, INC., priority 2012, published 2015):

How the values were obtained:
[1] = Chitosan-controlled release of zinc through dialysis tubing, dialysate zinc measured by ICP-OES; format: physicochemical
Method: (§1) The chitosan-controlled release of zinc was investigated. 0.1% solutions of chitosan were prepared. Zinc acetate was added to each of these solutions to provide a zinc ion concentration of 100 ppm or 200 ppm. The pH of the solutions was adjusted to 2, 5 or 7. Each solution was left at room temperature for 72 hours while gently mixing to allow for complete chitosan dissolution. Solutions containing zinc alone acted as controls for the experiment.
(§2) Each solution was subsequently transferred to dialysis tubing and placed in a jar containing deionized water. Stirring was carried out continuously throughout the duration of dialysis. Evaporative loss was minimized by placing a sealing wrap over the jar. A sample of the dialysate was removed at regular intervals and the zinc ion concentration was measured by inductively coupled plasma optical emission spectrometry (ICP-OES).

[2] = Amount of zinc bound to chitosan after 1 hour of dialysis; format: physicochemical
Method: as §1, §2
The amount of zinc bound to chitosan after 1 hour of dialysis at pH 2, 5 and 7 was also determined After 1 hour of dialysis, the amount of zinc that had been released through the dialysis tubing, in the presence and absence of chitosan, was measured as described above. The amount of zinc released in the presence of chitosan was subtracted from the amount of zinc released in the absence of chitosan to determine the amount of zinc bound to chitosan.

With CC(=O)[O-].CC(=O)[O-].[Zn+2] [Zinc, Zinc acetate] the “average rate of zinc release per hour” value ([1]; 100 ppm Zn acetate, pH 2) was 0.54 mg/h, the “average rate of zinc release per hour” value ([1]; 100 ppm Zn acetate, pH 5) was 1.38 mg/h and the “average rate of zinc release per hour” value ([1]; 100 ppm Zn acetate, pH 7) was 0.85 mg/h. The “Amount of Zn++ released” value ([1]; 100 ppm zinc ion, pH 2, 0.00 hrs) was 0 mg, the “Amount of Zn++ released” value ([1]; 100 ppm zinc ion, pH 2, 0.33 hrs) was 0.25 ± 0.00 mg and the “Amount of Zn++ released” value ([1]; 100 ppm zinc ion, pH 2, 0.67 hrs) was 0.42 ± 0.01 mg. The “Amount of Zn++ released” value ([1]; 100 ppm zinc ion, pH 2, 1.00 hrs) was 0.52 ± 0.01 mg, the “Amount of Zn++ released” value ([1]; 100 ppm zinc ion, pH 2, 1.33 hrs) was 0.75 ± 0.01 mg and the “Amount of Zn++ released” value ([1]; 100 ppm zinc ion, pH 2, 1.67 hrs) was 0.90 ± 0.02 mg. For the same compound, the “Amount of Zn++ released” value ([1]; 100 ppm zinc ion, pH 2, 2.00 hrs) was 1.01 ± 0.02 mg, the “Amount of Zn++ released” value ([1]; 100 ppm zinc ion, pH 2, 2.50 hrs) was 1.40 ± 0.01 mg and the “Amount of Zn++ released” value ([1]; 100 ppm zinc ion, pH 2, 3.00 hrs) was 1.66 ± 0.02 mg. For the same compound, the “Amount of Zn++ released” value ([1]; 100 ppm zinc ion, pH 5, 0.00 hrs) was 0 mg, the “Amount of Zn++ released” value ([1]; 100 ppm zinc ion, pH 5, 0.33 hrs) was 0.57 ± 0.01 mg and the “Amount of Zn++ released” value ([1]; 100 ppm zinc ion, pH 5, 0.67 hrs) was 1.15 ± 0.02 mg. The “Amount of Zn++ released” value ([1]; 100 ppm zinc ion, pH 5, 1.00 hrs) was 1.68 ± 0.02 mg, the “Amount of Zn++ released” value ([1]; 100 ppm zinc ion, pH 5, 1.33 hrs) was 2.36 ± 0.07 mg and the “Amount of Zn++ released” value ([1]; 100 ppm zinc ion, pH 5, 1.67 hrs) was 2.86 ± 0.07 mg. For the same compound, the “Amount of Zn++ released” value ([1]; 100 ppm zinc ion, pH 5, 2.00 hrs) was 3.14 ± 0.01 mg, the “Amount of Zn++ released” value ([1]; 100 ppm zinc ion, pH 5, 2.50 hrs) was 3.69 ± 0.05 mg and the “Amount of Zn++ released” value ([1]; 100 ppm zinc ion, pH 5, 3.00 hrs) was 4.00 ± 0.00 mg. The “Amount of Zn++ released” value ([1]; 100 ppm zinc ion, pH 7, 0.00 hrs) was 0 mg, the “Amount of Zn++ released” value ([1]; 100 ppm zinc ion, pH 7, 0.33 hrs) was 0.30 ± 0.00 mg and the “Amount of Zn++ released” value ([1]; 100 ppm zinc ion, pH 7, 0.67 hrs) was 0.71 ± 0.15 mg. The “Amount of Zn++ released” value ([1]; 100 ppm zinc ion, pH 7, 1.00 hrs) was 0.82 ± 0.00 mg, the “Amount of Zn++ released” value ([1]; 100 ppm zinc ion, pH 7, 1.33 hrs) was 1.11 ± 0.00 mg and the “Amount of Zn++ released” value ([1]; 100 ppm zinc ion, pH 7, 1.67 hrs) was 1.40 ± 0.01 mg. The “Amount of Zn++ released” value ([1]; 100 ppm zinc ion, pH 7, 2.00 hrs) was 1.78 ± 0.25 mg, the “average rate of zinc release per hour” value ([1]; 200 ppm Zn acetate, pH 2) was 1.58 mg/h and the “average rate of zinc release per hour” value ([1]; 200 ppm Zn acetate, pH 5) was 2.07 mg/h. The “average rate of zinc release per hour” value ([1]; 200 ppm Zn acetate, pH 7) was 1.47 mg/h, the “Amount of Zn++ released” value ([1]; 200 ppm zinc ion, pH 2, 0.00 hrs) was 0 mg and the “Amount of Zn++ released” value ([1]; 200 ppm zinc ion, pH 2, 0.33 hrs) was 0.52 ± 0.00 mg. For the same compound, the “Amount of Zn++ released” value ([1]; 200 ppm zinc ion, pH 2, 0.67 hrs) was 1.07 ± 0.00 mg, the “Amount of Zn++ released” value ([1]; 200 ppm zinc ion, pH 2, 1.00 hrs) was 1.77 ± 0.07 mg and the “Amount of Zn++ released” value ([1]; 200 ppm zinc ion, pH 2, 1.33 hrs) was 2.36 ± 0.01 mg. For the same compound, the “Amount of Zn++ released” value ([1]; 200 ppm zinc ion, pH 2, 1.67 hrs) was 2.90 ± 0.01 mg, the “Amount of Zn++ released” value ([1]; 200 ppm zinc ion, pH 2, 2.00 hrs) was 3.40 ± 0.05 mg and the “Amount of Zn++ released” value ([1]; 200 ppm zinc ion, pH 2, 2.50 hrs) was 4.09 ± 0.01 mg. For the same compound, the “Amount of Zn++ released” value ([1]; 200 ppm zinc ion, pH 2, 3.00 hrs) was 4.59 ± 0.00 mg, the “Amount of Zn++ released” value ([1]; 200 ppm zinc ion, pH 5, 0.00 hrs) was 0 mg and the “Amount of Zn++ released” value ([1]; 200 ppm zinc ion, pH 5, 0.33 hrs) was 0.99 ± 0.00 mg. The “Amount of Zn++ released” value ([1]; 200 ppm zinc ion, pH 5, 0.67 hrs) was 1.91 ± 0.02 mg, the “Amount of Zn++ released” value ([1]; 200 ppm zinc ion, pH 5, 1.00 hrs) was 2.73 ± 0.00 mg and the “Amount of Zn++ released” value ([1]; 200 ppm zinc ion, pH 5, 1.33 hrs) was 3.61 ± 0.00 mg. The “Amount of Zn++ released” value ([1]; 200 ppm zinc ion, pH 5, 1.67 hrs) was 4.25 ± 0.01 mg, the “Amount of Zn++ released” value ([1]; 200 ppm zinc ion, pH 5, 2.00 hrs) was 4.85 ± 0.02 mg and the “Amount of Zn++ released” value ([1]; 200 ppm zinc ion, pH 5, 2.50 hrs) was 5.59 ± 0.01 mg. The “Amount of Zn++ released” value ([1]; 200 ppm zinc ion, pH 5, 3.00 hrs) was 6.13 ± 0.03 mg, the “Amount of Zn++ released” value ([1]; 200 ppm zinc ion, pH 7, 0.00 hrs) was 0 mg and the “Amount of Zn++ released” value ([1]; 200 ppm zinc ion, pH 7, 0.33 hrs) was 0.630 ± 0.00 mg. For the same compound, the “Amount of Zn++ released” value ([1]; 200 ppm zinc ion, pH 7, 0.67 hrs) was 1.21 ± 0.01 mg, the “Amount of Zn++ released” value ([1]; 200 ppm zinc ion, pH 7, 1.00 hrs) was 1.76 ± 0.01 mg and the “Amount of Zn++ released” value ([1]; 200 ppm zinc ion, pH 7, 1.33 hrs) was 2.36 ± 0.02 mg. For the same compound, the “Amount of Zn++ released” value ([1]; 200 ppm zinc ion, pH 7, 1.67 hrs) was 2.88 ± 0.02 mg, the “Amount of Zn++ released” value ([1]; 200 ppm zinc ion, pH 7, 2.00 hrs) was 3.25 ± 0.04 mg and the “Zn++ released through the dialysis tubing” value ([2]; 100 ppm pH 2, after 1 hour of dialysis) was 0.57 mg. For the same compound, the “Zn++ released through the dialysis tubing” value ([2]; 100 ppm pH 5, after 1 hour of dialysis) was 1.62 mg, the “Zn++ released through the dialysis tubing” value ([2]; 100 ppm pH 7, after 1 hour of dialysis) was 0.87 mg and the “Zn++ released through the dialysis tubing” value ([2]; 200 ppm pH 2, after 1 hour of dialysis) was 1.68 mg. For the same compound, the “Zn++ released through the dialysis tubing” value ([2]; 200 ppm pH 5, after 1 hour of dialysis) was 2.54 mg and the “Zn++ released through the dialysis tubing” value ([2]; 200 ppm pH 7, after 1 hour of dialysis) was 1.68 mg.
